Tested on: yeast genes (level of expressed mRNA)
Experiment: DNA chip analysis of expressed mRNA of yeast genes after 2 h culture with a toxic chemical substance
Assay type: cell-based, Saccharomyces cerevisiae S288C
Description: Yeast (Saccharomyces cerevtisiae S288C (α SUC2mal mel gap2 CUP1)) were cultured at 25° C. on YPD medium (yeast extract 1%, polypepton 2%, glucose 2%). One of toxic chemical substances was added to the cell at logarithmic growth phase, and the cell was further cultured for two hours. Cell was cultured without any chemical substance in the same condition, and was used as control. Concentrations of the chemical substances were defined to inhibit the growth of the yeast but not lead to death.
After the completion of cultivation, the culture was centrifuged to collect the cells. To the cells, sodium acetate buffer (50 mM sodium acetate, 10 mM EDTA, 1% SDS) was added, and the mixture was shaken at 65° C. for five minutes, followed by returning to room temperature, and obtaining the supernatant, which procedure was repeated two times. To the supernatant, ½ amount of a solution of phenol/chloroform was added, and the mixture was centrifuged to give a supernatant, which was added with an equal amount of chloroform, and the mixture was centrifuged to give a supernatant. To the supernatant, an equal amount of isopropanol containing 0.3 M sodium acetate was added, and the mixture was allowed to stand at room temperature for 30 minutes, after which the mixture was centrifuged to give a sediment of the whole RNAs. Seventy % ethanol was added to the sediment, and the mixture was again centrifuged to give a sediment, which was then dried and dissolved in water. mRNA was isolated from the whole RNAs as followings. In view of the fact that a poly A chain is attached to the 3′ terminus of mRNA, a polynucleotide having a poly T structure which was immobilized on the surface of latex beads was used to trap the mRNA, and then the mRNA was washed and eluted with spine column (Oligotex-dT30<Super>mRNA Purification Kit, Takara). Reverse transcription of the mRNA was conducted with a reverse transcriptase (Super Script II Reverse Transcriptase; catalogue No. 18064-014, GibcoBRL) using fluorescence-labeled nucleotides to give cDNAs that were introduced with Cy3-dUTP or Cy5-dUTP during the reverse transcription.
The labeled cDNAs were dissolved in TE buffer (10 mM Tris-HCl/1 mM EDTA, pH8.0), and the solution was dropped on the DNA chip containing the whole genes of yeast (DNA Chip Research Inc. Japan) so that the cDNAs were hybridized on the DNA chip at 65° C. for over 12 hours. The fluoresces intensity of the DNA chip was read with a scanner, and the ratio relative to the fluorescence intensity resulting from the absence of chemical substance was estimated as the following, which is shown in Tables 1 to 9: [formula]
In the Tables, “Intensity” indicated in the rightmost column is a value of the level of expressed mRNA of each gene in control cells as divided by the average level of the expressions of the whole genes.

Substance: Na2As [(1)]
- The level of expressed mRNA in the presence of chemical substance/ (yeast gene YAL053W, ratio to control without chemical): 0.9
- The level of expressed mRNA in the presence of chemical substance/The level of expressed mRNA in the absence of chemical substance (yeast gene YAR010C): 0.8
- The level of expressed mRNA in the presence of chemical substance/The level of expressed mRNA in the absence of chemical substance (yeast gene YBL005W-A): 1.0
- The level of expressed mRNA in the presence of chemical substance/The level of expressed mRNA in the absence of chemical substance (yeast gene YBL041W): 1.2
- The level of expressed mRNA in the presence of chemical substance/The level of expressed mRNA in the absence of chemical substance (yeast gene YBL043W): 1.2
- The level of expressed mRNA in the presence of chemical substance/ (yeast gene YBL048W, ratio to control without chemical substance, 2 h culture): 2.0
- The level of expressed mRNA in the presence of chemical substance/The level of expressed mRNA in the absence of chemical substance (yeast gene YBL078C): 2.3
- The level of expressed mRNA in the presence of chemical substance/ (yeast gene YBL107C, ratio to control without chemical substance, 2 h culture): 1.4
- The level of expressed mRNA in the presence of chemical substance/in the absence of chemical substance (yeast gene YBR036C): 0.8
- The level of expressed mRNA in the presence of chemical substance/The level of expressed mRNA in the absence of chemical substance (yeast gene YBR214W): 0.9
- The level of expressed mRNA in the presence of chemical substance/in the absence of chemical substance (yeast gene YBR298C): 1.1
- The level of expressed mRNA in the presence of chemical substance/The level of expressed mRNA in the absence of chemical substance (yeast gene YCL020W): 1.1
- The level of expressed mRNA in the presence of chemical substance/The level of expressed mRNA in the absence of chemical substance (yeast gene YCL027W): 0.7
- The level of expressed mRNA in the presence of chemical substance/The level of expressed mRNA in the absence of chemical substance (yeast gene YCR004C): 1.7
- The level of expressed mRNA in the presence of chemical substance/The level of expressed mRNA in the absence of chemical substance (yeast gene YCR071C): 1.1
- The level of expressed mRNA in the presence of chemical substance/The level of expressed mRNA in the absence of chemical substance (yeast gene YCR088W): 0.9
- The level of expressed mRNA in the presence of chemical substance/The level of expressed mRNA in the absence of chemical substance (yeast gene YDL008W): 1.1
- The level of expressed mRNA in the presence of chemical substance/ (yeast gene YDL072C, ratio to control without chemical): 1.3
- The level of expressed mRNA in the presence of chemical substance/in the absence of chemical substance (yeast gene YDL078C): 0.7
- The level of expressed mRNA in the presence of chemical substance/ (yeast gene YDL204W, ratio to control without chemical): 1.4
- The level of expressed mRNA in the presence of chemical substance/in the absence of chemical substance (yeast gene YDL215C): 1.0
- The level of expressed mRNA in the presence of chemical substance/ (yeast gene YDL222C, ratio to control without chemical): 0.9
- The level of expressed mRNA in the presence of chemical substance/The level of expressed mRNA in the absence of chemical substance (yeast gene YDL238C): 0.7
- The level of expressed mRNA in the presence of chemical substance/The level of expressed mRNA in the absence of chemical substance (yeast gene YDR055W): 1.7
- The level of expressed mRNA in the presence of chemical substance/The level of expressed mRNA in the absence of chemical substance (yeast gene YDR084C): 0.9
- The level of expressed mRNA in the presence of chemical substance/The level of expressed mRNA in the absence of chemical substance (yeast gene YDR085C): 1.9
- The level of expressed mRNA in the presence of chemical substance/The level of expressed mRNA in the absence of chemical substance (yeast gene YDR104C): 0.8
- The level of expressed mRNA in the presence of chemical substance/The level of expressed mRNA in the absence of chemical substance (yeast gene YDR115W): 1.3
- The level of expressed mRNA in the presence of chemical substance/The level of expressed mRNA in the absence of chemical substance (yeast gene YDR259C): 1.4
- The level of expressed mRNA in the presence of chemical substance/in the absence of chemical substance (yeast gene YDR297W): 1.5
- The level of expressed mRNA in the presence of chemical substance/The level of expressed mRNA in the absence of chemical substance (yeast gene YDR315C): 1.0
- The level of expressed mRNA in the presence of chemical substance/ (yeast gene YDR330W, ratio to control without chemical substance, 2 h culture): 0.8
- The level of expressed mRNA in the presence of chemical substance/The level of expressed mRNA in the absence of chemical substance (yeast gene YDR358W): 0.7
- The level of expressed mRNA in the presence of chemical substance/in the absence of chemical substance (yeast gene YDR387C): 0.8
- The level of expressed mRNA in the presence of chemical substance/The level of expressed mRNA in the absence of chemical substance (yeast gene YDR388W): 0.7
- The level of expressed mRNA in the presence of chemical substance/ (yeast gene YDR411C, ratio to control without chemical substance, 2 h culture): 0.9
- The level of expressed mRNA in the presence of chemical substance/The level of expressed mRNA in the absence of chemical substance (yeast gene YDR432W): 0.5
- The level of expressed mRNA in the presence of chemical substance/The level of expressed mRNA in the absence of chemical substance (yeast gene YDR481C): 0.7
- The level of expressed mRNA in the presence of chemical substance/The level of expressed mRNA in the absence of chemical substance (yeast gene YDR510W): 1.0
- The level of expressed mRNA in the presence of chemical substance/ (yeast gene YDR511W, ratio to control without chemical substance, 2 h culture): 1.3
- The level of expressed mRNA in the presence of chemical substance/ (yeast gene YDR545W, ratio to control without chemical substance, 2 h culture): 0.6
- The level of expressed mRNA in the presence of chemical substance/ (yeast gene YEL001C, ratio to control without chemical): 1.0
- The level of expressed mRNA in the presence of chemical substance/The level of expressed mRNA in the absence of chemical substance (yeast gene YEL042W): 0.6
- The level of expressed mRNA in the presence of chemical substance/The level of expressed mRNA in the absence of chemical substance (yeast gene YEL066W): 2.0
- The level of expressed mRNA in the presence of chemical substance/ (yeast gene YER004W, ratio to control without chemical substance, 2 h culture): 1.0
- The level of expressed mRNA in the presence of chemical substance/ (yeast gene YER035W, ratio to control without chemical substance, 2 h culture): 1.4
- The level of expressed mRNA in the presence of chemical substance/The level of expressed mRNA in the absence of chemical substance (yeast gene YER039C): 1.0
- The level of expressed mRNA in the presence of chemical substance/ (yeast gene YER079W, ratio to control without chemical substance, 2 h culture): 1.1
- The level of expressed mRNA in the presence of chemical substance/ (yeast gene YER106W, ratio to control without chemical): 1.3
- The level of expressed mRNA in the presence of chemical substance/The level of expressed mRNA in the absence of chemical substance (yeast gene YER107C): 0.9
- The level of expressed mRNA in the presence of chemical substance/The level of expressed mRNA in the absence of chemical substance (yeast gene YER130C): 0.9
- The level of expressed mRNA in the presence of chemical substance/ (yeast gene YER158C, ratio to control without chemical substance, 2 h culture): 1.2
- The level of expressed mRNA in the presence of chemical substance/ (yeast gene YER163C, ratio to control without chemical substance, 2 h culture): 1.1
- The level of expressed mRNA in the presence of chemical substance/ (yeast gene YER175C, ratio to control without chemical substance, 2 h culture): 0.9
- The level of expressed mRNA in the presence of chemical substance/ (yeast gene YFL006W, ratio to control without chemical substance, 2 h culture): 0.8

Reference: patent US20050112573A1, “Method of detecting toxic substance” (priority 2001, published 2005)
